The record followed here is PMC5421785, “Citrullination only infrequently impacts peptide binding to HLA class II MHC” (PLoS ONE, 2017).

The IC50 is the midpoint of a concentration-inhibition curve.

Experiment [1] concerns the target T1, HLA-DRB1*01:01 (Homo sapiens, UniProt P01903+P01911, A100R/D57E/F55L/F60I/F76Y/I96L/L162R/M171V/P40L/Q125E/R42F/V115G/Y59C).
T1 construct: EBV transformed homozygous cell lines were used as sources of MHC molecules; endogenous in cells; host or cells: EBV transformed homozygous cell lines
The experiment is described as follows: HLA class II peptide binding, inhibition of radiolabeled peptide binding to purified MHC.

Experiment [2] concerns the target T2, HLA-DRB1*04:01 (Homo sapiens, UniProt P01903+P01911, A100K/A169T/F76Y/I96L/K127E/L162R/M171V/N62H/P40V/Q125Y/R42H/S133A/S149N/S66Y/V115G/V209L/W38E).
T2 construct: EBV transformed homozygous cell lines were used as sources of MHC molecules; endogenous in cells; host or cells: EBV transformed homozygous cell lines
The experiment is described as above.

Where [3] appears, read: citrullinated 15-mer peptide (X = citrulline), purified HLA-DRB1*01:01, read-out: DRB1*01:01 binding capacity, Cit peptide (IC50 nM).
The mark [4] stands for this setting: ratio of WT IC50 to Cit IC50, >1 = citrullination increases binding.
The mark [5] stands for this setting: citrullinated 15-mer peptide (X = citrulline), purified HLA-DRB1*04:01, read-out: DRB1*04:01 binding capacity, Cit peptide (IC50 nM).
The mark [6] stands for this setting: wild-type (unmodified Arg) 15-mer peptide, purified HLA-DRB1*01:01, read-out: DRB1*01:01 binding capacity, WT peptide (IC50 nM).
Where [7] appears, read: wild-type (unmodified Arg) 15-mer peptide, purified HLA-DRB1*04:01, read-out: DRB1*04:01 binding capacity, WT peptide (IC50 nM).
Setting [8] is: citrullinated 15-mer (X), purified MHC, inhibition of radiolabeled peptide binding, dash = IC50 >40,000 nM, read-out: DRB1*01:01 binding capacity, Cit peptide (IC50 nM).
The mark [9] stands for this setting: citrullinated 15-mer (X), purified MHC, inhibition of radiolabeled peptide binding, dash = IC50 >40,000 nM, read-out: DRB1*04:01 binding capacity, Cit peptide (IC50 nM).

Where two headings read alike, the source gives them in different places. Square brackets hold non-standard residues; d marks the D form. Ends that are not written are not given here. Peptide text beside a SMILES is read from it. Cit = NC(=O)NCCC[C@H](N)C(=O)O

As to `CC(C)[C@H](NC(=O)CNC(=O)[C@H](C)NC(=O)[C@H](C)NC(=O)CNC(=O)[C@H](CC(=O)O)NC(=O)[C@H](CCCNC(N)=O)NC(=O)CNC(=O)[C@@H]1CCCN1C(=O)[C@@H]1CCCN1C(=O)CNC(=O)[C@H](CC(=O)O)NC(=O)[C@H](C)NC(=O)CN)C(=O)N[C@@H](CCCCN)C(=O)O` [GADGPPGXDGAAGVK] (H-GADGPPG[Cit]DGAAGVK-OH; N-terminus and C-terminus assumed), the IC50 in experiment [1] (setting [3]) and in experiment [2] (setting [5]) was over 40000 nM in each case. In addition, the “DRB1*01:01 binding capacity, WT/cit ratio” value in experiment [1] (setting [4]) is reported as 1.0. Further, the “DRB1*04:01 binding capacity, WT/cit ratio” value in experiment [2] (setting [4]) is reported as 1.0.
With TNLDSLPLVDTHSKR [Vimentin 426 WT], the IC50 in experiment [1] (setting [6]) is 904 nM; in experiment [2] (setting [7]), over 40000 nM.
In the case of LGVMQGPMGPMGPRG [Collagen 196 WT], the IC50 in experiment [1] (setting [6]) is 19 nM; in experiment [2] (setting [7]), over 40000 nM.
With `CC[C@H](C)[C@H](NC(=O)[C@H](C)N)C(=O)N[C@@H](CC(N)=O)C(=O)N[C@H](C(=O)N[C@@H](CCC(=O)O)C(=O)N[C@@H](Cc1ccccc1)C(=O)N[C@@H](CCCCN)C(=O)N[C@@H](CC(N)=O)C(=O)N[C@H](C(=O)N[C@@H](CCCNC(N)=O)C(=O)N[C@H](C(=O)N[C@@H](CC(N)=O)C(=O)N[C@@H](CCC(=O)O)C(=O)N[C@@H](CCCCN)C(=O)N[C@H](C(=O)O)C(C)C)[C@@H](C)O)[C@@H](C)O)[C@@H](C)O` [AINTEFKNTXTNEKV] (H-AINTEFKNT[Cit]TNEKV-OH), the values for the IC50 in experiment [1] (setting [8]) and in experiment [2] (setting [9]) were 2370 nM and 931 nM, respectively.
`CC(C)C[C@H](NC(=O)[C@H](CCCNC(=N)N)NC(=O)[C@H](C)N)C(=O)N[C@@H](CC(=O)O)C(=O)N[C@@H](CC(C)C)C(=O)N[C@@H](CCC(=O)O)C(=O)N[C@@H](CCCNC(N)=O)C(=O)N[C@@H](CCCCN)C(=O)N[C@H](C(=O)N[C@@H](CCC(=O)O)C(=O)N[C@@H](CO)C(=O)N[C@@H](CC(C)C)C(=O)N[C@@H](CCC(N)=O)C(=O)N[C@@H](CCC(=O)O)C(=O)N[C@@H](CCC(=O)O)C(=O)O)C(C)C` [ARLDLEXKVESLQEE] (H-ARLDLE[Cit]KVESLQEE-OH): the IC50 in experiment [1] (setting [8]) stood at 1340 nM; in experiment [2] (setting [9]) it was 12000 nM.
Take `CC[C@H](C)[C@H](N)C(=O)N[C@@H](CCCNC(N)=O)C(=O)N[C@@H](C)C(=O)N[C@@H](CCC(=O)O)C(=O)NCC(=O)N[C@@H](CC(N)=O)C(=O)N[C@@H](CO)C(=O)N[C@@H](CCCNC(=N)N)C(=O)N[C@@H](Cc1ccccc1)C(=O)N[C@H](C(=O)N[C@@H](Cc1ccc(O)cc1)C(=O)N[C@H](C(=O)N[C@@H](C)C(=O)N[C@@H](CC(C)C)C(=O)N[C@@H](CCCCN)C(=O)O)[C@@H](C)O)[C@@H](C)O` [IXAEGNSRFTYTALK] (H-I[Cit]AEGNSRFTYTALK-OH): the IC50 in experiment [1] (citrullinated peptide as listed (X at Cit position), read-out: DRB1*01:01 binding capacity Cit peptide (IC50 nM)) amounted to 0.62 nM; in experiment [1] (value of the wild-type (non-citrullinated) counterpart of the listed peptide, read-out: DRB1*01:01 binding capacity WT peptide (IC50 nM)), 1.3 nM; in experiment [2] (citrullinated peptide as listed (X at Cit position), read-out: DRB1*04:01 binding capacity Cit peptide (IC50 nM)) it was 2310 nM; in experiment [2] (value of the wild-type (non-citrullinated) counterpart of the listed peptide, read-out: DRB1*04:01 binding capacity WT peptide (IC50 nM)), 794 nM.
Turning to `CC[C@H](C)[C@H](NC(=O)[C@@H](N)CC(=O)O)C(=O)N[C@@H](CCSC)C(=O)N[C@@H](CCCNC(N)=O)C(=O)N[C@@H](CC(C)C)C(=O)N[C@@H](CCCNC(=N)N)C(=O)N[C@@H](CCC(=O)O)C(=O)N[C@@H](CCCCN)C(=O)N[C@@H](CC(C)C)C(=O)N[C@@H](CCC(N)=O)C(=O)N[C@@H](CCC(=O)O)C(=O)N[C@@H](CCC(=O)O)C(=O)N[C@@H](CCSC)C(=O)N[C@@H](CC(C)C)C(=O)N[C@@H](CCC(N)=O)C(=O)O` [DIMXLREKLQEEMLQ] (H-DIM[Cit]LREKLQEEMLQ-OH), the figures for the IC50 in experiment [1] (setting [8]) and in experiment [2] (setting [9]) were 983 nM and over 40000 nM, respectively.
On to `CC[C@H](C)[C@H](NC(=O)CN)C(=O)N[C@H](C(=O)NCC(=O)N[C@@H](CC(C)C)C(=O)N1CCC[C@H]1C(=O)NCC(=O)N[C@@H](CCC(N)=O)C(=O)N[C@@H](CCCNC(=N)N)C(=O)NCC(=O)N[C@@H](CCC(=O)O)C(=O)N[C@@H](CCCNC(N)=O)C(=O)NCC(=O)N[C@@H](Cc1ccccc1)C(=O)N1CCC[C@H]1C(=O)O)C(C)C` [GIVGLPGQRGEXGFP] (H-GIVGLPGQRGE[Cit]GFP-OH), for which the IC50 turned out to be 6.7 nM in experiment [1] (setting [3]) and 5800 nM in experiment [2] (setting [5]).
In the case of `CC(C)C[C@H](NC(=O)[C@H](C)NC(=O)[C@H](C)NC(=O)[C@@H](N)[C@@H](C)O)C(=O)N[C@@H](CCCNC(N)=O)C(=O)N[C@@H](CC(=O)O)C(=O)N[C@H](C(=O)N[C@@H](CCCNC(=N)N)C(=O)N[C@@H](CCC(N)=O)C(=O)N[C@@H](CCC(N)=O)C(=O)N[C@@H](Cc1ccc(O)cc1)C(=O)N[C@@H](CCC(=O)O)C(=O)N[C@@H](CO)C(=O)N[C@H](C(=O)N[C@@H](C)C(=O)O)C(C)C)C(C)C` [TAALXDVRQQYESVA] (H-TAAL[Cit]DVRQQYESVA-OH), the IC50 turned out to be 956 nM in experiment [1] (setting [8]) and 8760 nM in experiment [2] (setting [9]).
For PGIDMSAFAGLGPRE [Collagen 1216 WT], the IC50 is 8.7 nM in experiment [1] (setting [6]) and 14100 nM in experiment [2] (setting [7]).
`CC(C)C[C@H](NC(=O)[C@H](CCCNC(=N)N)NC(=O)[C@@H](NC(=O)[C@H](C)NC(=O)[C@H](CO)NC(=O)[C@H](CO)NC(=O)[C@H](CCCNC(N)=O)NC(=O)[C@@H](NC(=O)[C@H](C)NC(=O)[C@H](Cc1ccc(O)cc1)NC(=O)[C@@H](NC(=O)CNC(=O)CNC(=O)[C@@H]1CCCN1C(=O)[C@@H](N)CO)C(C)C)[C@@H](C)O)C(C)C)C(=O)O` [SPGGVYATXSSAVRL] (H-SPGGVYAT[Cit]SSAVRL-OH): the results for the IC50 in experiment [1] (setting [8]) and in experiment [2] (setting [9]) were 6.6 nM and 329 nM, respectively.
For `CC(C)C[C@H](NC(=O)[C@H](C)NC(=O)[C@H](C)NC(=O)[C@@H](NC(=O)[C@H](CC(C)C)NC(=O)[C@H](CC(=O)O)NC(=O)[C@@H]1CCCN1C(=O)[C@H](CCCCN)NC(=O)[C@@H](N)CO)[C@@H](C)O)C(=O)N[C@@H](CCCNC(N)=O)C(=O)N[C@@H](CC(=O)O)C(=O)N[C@H](C(=O)N[C@@H](CCCNC(=N)N)C(=O)N[C@@H](CCC(N)=O)C(=O)N[C@@H](CCC(N)=O)C(=O)O)C(C)C` [SKPDLTAALXDVRQQ] (H-SKPDLTAAL[Cit]DVRQQ-OH), the figures for the IC50 in experiment [1] (setting [8]) and in experiment [2] (setting [9]) were 1370 nM and 30300 nM, respectively.
Regarding `CC(C)[C@H](NC(=O)[C@H](CCC(N)=O)NC(=O)[C@H](CCCNC(N)=O)NC(=O)[C@H](CCCNC(=N)N)NC(=O)[C@H](Cc1ccc(O)cc1)NC(=O)[C@H](CCC(=O)O)NC(=O)[C@@H](NC(=O)[C@H](CO)NC(=O)[C@H](CCC(=O)O)NC(=O)[C@H](CCC(N)=O)NC(=O)[C@H](CCCCN)NC(=O)[C@H](C)NC(=O)[C@@H](N)CCC(N)=O)[C@@H](C)O)C(=O)N[C@@H](CCC(N)=O)C(=O)N[C@@H](CO)C(=O)O` [QAKQESTEYRXQVQS] (H-QAKQESTEYR[Cit]QVQS-OH), the IC50 in experiment [1] (setting [3]) came out at 1740 nM; in experiment [2] (setting [5]), 7440 nM.
In the case of `CC(C)C[C@H](NC(=O)[C@H](CC(=O)O)NC(=O)[C@H](CC(C)C)NC(=O)[C@H](CCCNC(=N)N)NC(=O)[C@H](C)NC(=O)[C@H](CC(C)C)NC(=O)[C@H](CO)NC(=O)[C@H](C)NC(=O)[C@H](CC(N)=O)NC(=O)[C@H](CC(=O)O)NC(=O)[C@@H](NC(=O)[C@H](CC(=O)O)NC(=O)[C@H](CCC(N)=O)NC(=O)[C@H](CCCNC(N)=O)NC(=O)[C@@H](N)Cc1ccccc1)C(C)C)C(=O)O` [FXQDVDNASLARLDL] (H-F[Cit]QDVDNASLARLDL-OH), the IC50 in experiment [1] (setting [8]) came out at 7990 nM; in experiment [2] (setting [9]) it was 280 nM.
As to `CC(C)C[C@H](NC(=O)[C@H](CC(=O)O)NC(=O)[C@H](CC(C)C)NC(=O)[C@H](CCCNC(N)=O)NC(=O)[C@H](C)NC(=O)[C@H](CC(C)C)NC(=O)[C@H](CO)NC(=O)[C@H](C)NC(=O)[C@H](CC(N)=O)NC(=O)[C@H](CC(=O)O)NC(=O)[C@@H](NC(=O)[C@H](CC(=O)O)NC(=O)[C@H](CCC(N)=O)NC(=O)[C@H](CCCNC(=N)N)NC(=O)[C@@H](N)Cc1ccccc1)C(C)C)C(=O)O` [FRQDVDNASLAXLDL] (H-FRQDVDNASLA[Cit]LDL-OH), the IC50 in experiment [1] (setting [8]) is 3940 nM; in experiment [2] (setting [9]) it was 279 nM.
With MSTRSVSSSSYRRMF [Vimentin 1 WT], the IC50 turned out to be 408 nM in experiment [1] (read-out: DRB1*01:01 binding capacity, WT peptide (IC50 nM)) and 491 nM in experiment [2] (read-out: DRB1*04:01 binding capacity, WT peptide (IC50 nM)).
On to `CC[C@H](C)[C@H](NC(=O)[C@H](CC(=O)O)NC(=O)[C@H](CCC(=O)O)NC(=O)[C@H](C)NC(=O)[C@H](CC(C)C)NC(=O)[C@H](CC(N)=O)NC(=O)[C@@H](N)CC(=O)O)C(=O)N[C@@H](CCSC)C(=O)N[C@@H](CCCNC(N)=O)C(=O)N[C@@H](CC(C)C)C(=O)N[C@@H](CCCNC(=N)N)C(=O)N[C@@H](CCC(=O)O)C(=O)N[C@@H](CCCCN)C(=O)N[C@@H](CC(C)C)C(=O)N[C@@H](CCC(N)=O)C(=O)O` [DNLAEDIMXLREKLQ] (H-DNLAEDIM[Cit]LREKLQ-OH), for which the IC50 in experiment [1] (setting [8]) is 4690 nM; in experiment [2] (setting [9]) it was over 40000 nM.
